Columns and labels:
[1] = Binding affinity for Sigma opioid receptor type 1 in guinea pig brain homogenate with 0.5 nM [3H](+)-PENT
[2] = target: Sigma intracellular receptor 2 (Cavia porcellus); assay: Binding affinity for Sigma opioid receptor type 2 in guinea pig brain homogenate with 4 nM [3H]-(+)-DTG

Row | SMILES | Ki [1] | Ki [2]
1 | O=C1NC(c2ccccc2)(c2ccccc2)C(=O)N1CCN1CCC(c2ccccc2)CC1 [5,5-Diphenyl-3-[2-(4-phenyl-piperidin-1-yl)-ethyl]-imidazolidine-2,4-dione] | 17 nM | 43 nM
2 | O=C1NC(c2ccccc2)(c2ccccc2)C(=O)N1CCCN1CCC(c2ccccc2)CC1 [5,5-Diphenyl-3-[3-(4-phenyl-piperidin-1-yl)-propyl]-imidazolidine-2,4-dione] | 22 nM | 25 nM
3 | O=C1NC(c2ccccc2)(c2ccccc2)C(=O)N1CCCCN1CCN(c2ccccc2)CC1 [5,5-Diphenyl-3-[4-(4-phenyl-piperazin-1-yl)-butyl]-imidazolidine-2,4-dione] | 328 nM | 49 nM
4 | O=C1NC(c2ccccc2)(c2ccccc2)C(=O)N1CCCCCN1CCN(c2ccccc2)CC1 [5,5-Diphenyl-3-[5-(4-phenyl-piperazin-1-yl)-pentyl]-imidazolidine-2,4-dione] | 19 nM | 19 nM

— BindingDB's records for doi:10.1016/S0960-894X(00)80068-2 (1994)
